According to ChEMBL document CHEMBL1141122, “Receptor flexibility in de novo ligand design and docking” (J Med Chem, 2005):
pIC50, pKi: −log10 of the molar value.

What was measured:
[1] = molecular target: T1, Interstitial collagenase (Homo sapiens, UniProt P03956); assay: Inhibitory concentration against (MMP-1) matrix metalloprotease-1
T1 sequence (P03956 whole entry): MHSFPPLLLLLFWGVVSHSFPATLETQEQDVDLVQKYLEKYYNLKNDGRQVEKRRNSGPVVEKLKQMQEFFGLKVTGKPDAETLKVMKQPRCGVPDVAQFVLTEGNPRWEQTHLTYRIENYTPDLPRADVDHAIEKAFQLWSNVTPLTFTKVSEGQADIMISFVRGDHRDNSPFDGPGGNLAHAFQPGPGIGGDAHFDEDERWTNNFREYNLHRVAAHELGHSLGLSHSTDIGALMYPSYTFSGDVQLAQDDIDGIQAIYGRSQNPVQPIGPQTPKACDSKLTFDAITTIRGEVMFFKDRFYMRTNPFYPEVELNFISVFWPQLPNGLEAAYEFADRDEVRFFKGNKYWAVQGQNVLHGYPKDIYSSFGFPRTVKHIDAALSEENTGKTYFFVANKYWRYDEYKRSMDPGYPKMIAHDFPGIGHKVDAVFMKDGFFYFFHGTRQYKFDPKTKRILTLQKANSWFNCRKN

[2] = molecular target: T1, Interstitial collagenase; assay: Binding affinity towards (MMP-1) matrix metalloprotease-1

SMILES	pIC50 [1]	pKi [2]
O=C(CNC(=O)c1ccc(Oc2ccc(Cl)cc2)cc1)NO	–	7.15
CCCCOc1ccc(S(=O)(=O)NCC(=O)NO)cc1	6.04	–
O=C(CNC(=O)N1CCC(Oc2ccc(-n3ccnc3)cc2)CC1)NO	–	6.65
Cc1cc(F)ccc1COc1ccc(C(=O)NCC(=O)NO)cc1	8.00	–
COc1ccc(C(=O)NCC(=O)NO)cc1	–	7.48
O=C1CC=C2C=CC=C(C(=O)CCC(=O)NO)N2C1	8.52	–
O=C(CCS(=O)(=O)N1CCC(Oc2ccc(-n3ccnc3)cc2)CC1)NO	–	6.65
O=C1CC=C2C=CC=C(S(=O)(=O)NCC(=O)NO)N2C1	8.89	–
COc1ccc(S(=O)(=O)CCC(=O)NO)cc1	–	7.48
O=C(CCC(=O)c1ccc(C(F)(F)F)cc1)NO	–	8.52
Cc1cc(F)ccc1COc1ccc(C(=O)CCC(=O)NO)cc1	8.00	–
O=C(CNS(=O)(=O)c1ccc(C(F)(F)F)cc1)NO	–	8.52
O=C(CCC(=O)c1ccc(Oc2ccc(Cl)cc2)cc1)NO	–	7.15
O=C1CC=C2C=CC=C(S(=O)(=O)CCC(=O)NO)N2C1	8.89	–
O=C(CNS(=O)(=O)N1CCC(Oc2ccc(-n3ccnc3)cc2)CC1)NO	–	6.65
CCCCOc1ccc(S(=O)(=O)CCC(=O)NO)cc1	6.04	–
O=C(CCS(=O)(=O)c1ccc(Oc2ccc(Cl)cc2)cc1)NO	–	7.15
O=C(CCS(=O)(=O)c1ccc(Oc2ccncc2)cc1)NO	–	8.09
O=C(CNC(=O)c1ccc(Oc2ccncc2)cc1)NO	–	8.09

The next lines start with the values.

pIC50 [1]	pKi [2]	SMILES
6.92	–	CC#COc1ccc(C(=O)CCC(=O)NO)cc1
–	8.09	O=C(CNS(=O)(=O)c1ccc(Oc2ccncc2)cc1)NO
7.66	–	O=C(CCS(=O)(=O)c1ccc(Oc2ccccc2)cc1)NO
6.04	–	CCCCOc1ccc(C(=O)CCC(=O)NO)cc1
–	8.52	O=C(CNC(=O)c1ccc(C(F)(F)F)cc1)NO
6.92	–	CC#COc1ccc(S(=O)(=O)CCC(=O)NO)cc1
7.66	–	O=C(CCC(=O)c1ccc(Oc2ccccc2)cc1)NO
–	7.15	O=C(CNS(=O)(=O)c1ccc(Oc2ccc(Cl)cc2)cc1)NO
–	8.09	O=C(CCC(=O)c1ccc(Oc2ccncc2)cc1)NO
7.66	–	O=C(CNC(=O)c1ccc(Oc2ccccc2)cc1)NO
7.66	–	O=C(CNS(=O)(=O)c1ccc(Oc2ccccc2)cc1)NO
–	8.52	O=C(CCS(=O)(=O)c1ccc(C(F)(F)F)cc1)NO
8.00	–	Cc1cc(F)ccc1COc1ccc(S(=O)(=O)CCC(=O)NO)cc1
–	7.48	COc1ccc(C(=O)CCC(=O)NO)cc1
8.00	–	Cc1cc(F)ccc1COc1ccc(S(=O)(=O)NCC(=O)NO)cc1
6.92	–	CC#COc1ccc(C(=O)NCC(=O)NO)cc1
6.04	–	CCCCOc1ccc(C(=O)NCC(=O)NO)cc1
–	6.65	O=C(CCC(=O)N1CCC(Oc2ccc(-n3ccnc3)cc2)CC1)NO
6.92	–	CC#COc1ccc(S(=O)(=O)NCC(=O)NO)cc1
8.89	–	O=C1CC=C2C=CC=C(C(=O)NCC(=O)NO)N2C1
